Here are results for one molecule from paper PMC7940618, “Specific inhibition of the Survivin–CRM1 interaction by peptide-modified molecular tweezers” (Nature Communications, 2021).

Peptide text beside a SMILES is read from it.

What all share (type): binding
One assay deals with T1, Survivin120 (Homo sapiens, UniProt O15392).
T1 construct: the only published NMR structure originated from a truncated Survivin (aa 1-120) with improved solubility; GST with PreScission site (N); made in house; host or cells: Escherichia coli soluBL21
The assay is described as follows: ITC titration of tweezers with Survivin120 wildtype. As to the method:
The interaction between the tweezers and Survivin was studied by isothermal titration calorimetry (ITC) and NMR spectroscopy. So far, the only published NMR structure originated from a truncated Survivin (aa 1-120) with improved solubility. […] Since the truncated construct still contains all relevant parts of the protein and gives excellent NMR spectra (SI5), we chose it for all our in vitro experiments and denote it as Survivin120 in the following results.
(§1) ITC was performed with a MicroCal iTC200 from Malvern Panalytical in PBS, pH 7.4 at 25 °C with molecular tweezers in the cell and Survivin120 in the titration syringe. The protein was dialyzed overnight at 4 °C against the PBS buffer. Ligands were dissolved in the respective dialysis buffer. Then, 300 µM TW were titrated with 300 µM Survivin120 WT or 321 µM Survivin120 K90/103T. Then, 100 µM TW-ELTL, TW-ELTLGEFL, or TW-LFEEGLLT was titrated with 1.2 mM Survivin120 WT or 2.5 mM Survivin120 K90/103T. For reverse titrations, either 33.3 or 34.4 µM Survivin120 in the cell was titrated with 5 mM TW or TW-ELTL in the syringe, respectively. All titrations were performed in PBS, pH 7.4 at 25 °C. Then, 1.5 μL injections were used with 120 s spacing time between injections. The injection rate was set to 0.5 µL/s and the reference power was 5 µcal/s. ITC thermograms were fitted to a one set of sites model with the software Origin (v7.0552) provided with the instrument. Heat of dilution was subtracted as constant from each data point.
(§2) ITC thermograms were fitted to a one set of sites model with the software Origin provided with the instrument. Heat of dilution was subtracted as constant from each data point. From three independent experiments (n = 3), one representative example was depicted, and thermodynamic data were derived thereof. For pull-down experiments, only the representative quantification of the depicted western blot is shown. […] Fluorescence anisotropy graphs were generated with GraphPad Prism 5.0. Depicted error bars represent the standard deviation of three independent titrations.

In a further assay the target is T2, Survivin120 K90/103T (Homo sapiens, UniProt O15392, K103T/K90T).
T2 construct: the only published NMR structure originated from a truncated Survivin (aa 1-120) with improved solubility; GST with PreScission site (N); made in house; host or cells: Escherichia coli soluBL21
As to the kind of experiment: ITC titration of tweezers with Survivin120 K90/103T mutant.
Excerpt: If the tweezer-based inhibitors indeed bind to lysines/arginines flanking the NES (K90, K91, K103, R106), their mutation to, e.g., threonine, should abolish the observed effects. For this reason, we generated double and triple Survivin120 mutants lacking these putative tweezer anchor points. Unfortunately, most double mutants and especially the triple mutants were unfolded as evidenced by 1D ^1H NMR (SI6); finally, the correctly folded double threonine mutant Survivin120 K90/103T was chosen for further investigation. […] Next, binding of FAM-labeled tweezers (SI3) to either Survivin120 wildtype or the K90/103T mutant was studied by fluorescence anisotropy (Fig. 7d–f). […] We conclude that lysines 90 and 103 are indeed essential for efficient tweezer binding.
as §1, §2
In general terms: ITC needs no label: the signal is the heat of the interaction.

The target in another assay is T3, Survivin–CRM1 complex (Homo sapiens, UniProt O15392).
T3 construct: expressed in transfected cells; host or cells: 293T cells (Survivin142-HA); E. coli soluBL21 (GST-CRM1, RanQ69L)
As to the kind of experiment: Pull-down with 293T lysate (Survivin142-HA), GST-CRM1 bait, RanQ69L, dGTP. As to the method:
We next investigated whether tweezers inhibit the Survivin–CRM1 complex formation in vitro. The effects of the unmodified and peptide-linked tweezers were analyzed via pull-down experiments with 293T lysates containing overexpressed HA-tagged Survivin142, recombinant GST-CRM1 as bait protein, and tweezers (Fig. 6). The parent and ELTL-linked tweezer required 10–50 µM to disrupt the Survivin–CRM1 complex. […] In order to provide experimental evidence for the sequence selectivity of the TW-ELTLGEFL ligand, a scrambled analog was synthesized and clicked to the tweezer, resulting in the hybrid molecule TW-LFEEGLLT (SI1, SI2, and SI10). […] Instead, the slight chemical shift perturbations might be due to the spatial proximity of the peptide moiety to the anchoring residue. All those results strongly indicate that the additional binding energy from the NES interface was lost due to scrambling and thus point toward specific recognition as the reason for increased selectivity and interference with the Survivin–CRM1 interaction. Of note, very high tweezer concentrations (100–200 µM) also weakened GST-CRM1 binding to GSH-Sepharose beads, most likely by low-affinity binding to the GST protein.
All pull-down assays were performed at room temperature in pull-down buffer (PBS, pH 7.4, 1 mM DTT, 0.02 Triton X-100). GST fusion proteins were immobilized on 50 μL GSH-coated Sepharose 4B beads from GE Healthcare. The beads were prior equilibrated and blocked with 500 μL pull-down blocking buffer (PBS, pH 7.4, 1 (w/v) BSA, 1 mM DTT, 0.02 (v/v) Triton X-100) for 1 h to prevent unspecific binding.
For analysis of the effective inhibitory tweezer concentration, 200 μg 293T lysate with overexpressed Survivin142-HA was preincubated without ligand or with different concentrations (10 nM to 200 μM) of unmodified tweezer TW, TW-ELTL, TW-ELTLGEFL, or TW-LFEEGLLT for 1 h and then mixed with 35 μg GST-CRM1, 55 μg RanQ69L, and 2 mM dGTP. GSH-beads were incubated with this protein mixture for 2 h under rotation. […]
Samples of input and beads taken during pull-down experiments were ran on 12.5 SDS gels and transferred onto 0.2 µM PVDF membranes (Amersham Hybond P 0.2) using a PerfectBlue™ tank electro blotter (Peqlab) at 350 mA for 150 min. […] Chemiluminescence was detected and imaged using the Pierce ECL Plus Western Blotting Substrate kit (Thermo Fisher Scientific) and Chemidoc system (Bio-Rad) or film processor Cawomat 2000 IR (CAWO). Western blots were analyzed by densitometric analysis with ImageJ version 1.52p (U.S. National Institutes of Health), measuring the mean gray intensity of protein bands. […]

T1 sequence (O15392 1-120): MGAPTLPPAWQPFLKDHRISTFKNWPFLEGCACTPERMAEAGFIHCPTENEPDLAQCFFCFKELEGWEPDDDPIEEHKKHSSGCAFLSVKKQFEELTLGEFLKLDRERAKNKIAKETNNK
T2 sequence (O15392 1-120 K90T/K103T): as the sequence (O15392 1-120) above, with K90T, K103T counted along it
T3 sequence (O15392 whole entry, one chain of several): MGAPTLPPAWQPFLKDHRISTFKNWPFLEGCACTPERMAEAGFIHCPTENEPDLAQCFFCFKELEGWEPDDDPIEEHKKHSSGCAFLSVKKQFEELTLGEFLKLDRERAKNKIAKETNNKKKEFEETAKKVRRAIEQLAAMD

Regarding `CC(C)C[C@H](NC(=O)Cn1cc(CCOP(=O)(O)Oc2c3c(c(OP(=O)(O)O)c4c2C2CC4c4cc5c(cc42)C2CC5c4ccccc42)C2CC3c3cc4c(cc32)C2CC4c3ccccc32)nn1)C(=O)N[C@@H](Cc1ccccc1)C(=O)N[C@@H](CCC(=O)O)C(=O)N[C@@H](CCC(=O)O)C(=O)NCC(=O)N[C@@H](CC(C)C)C(=O)N[C@@H](CC(C)C)C(=O)N[C@H](C(=O)O)[C@@H](C)O` [TW-LFEEGLLT] (HELM PEPTIDE1{[O=C(Cn1cc(CCOP(=O)(O)Oc2c3c(c(OP(=O)(O)O)c4c2C2CC4c4cc5c(cc42)C2CC5c4ccccc42)C2CC3c3cc4c(cc32)C2CC4c3ccccc32)nn1)[*:2]].L.F.E.E.G.L.L.T}$$$$V2.0), the “lower affinity toward wildtype protein compared with TW-ELTLGEFL” value on Survivin120 (ITC KD ratio) is reported as “~ three”. Further, on Survivin120 (ITC, Survivin120 WT), the “-TΔS” value was -4.7 kcal, the ΔG is recorded as -5.7 kcal and the ΔH is reported as -1.0 kcal. For the same molecule, the Kd (usually the equilibrium constant for the complex coming apart) at Survivin120 (ITC, Survivin120 WT, PBS pH 7.4, 25 °C, one set of sites model, mean ± SEM of fit) was 68 ± 22 µM. The same molecule yielded a Kd on Survivin120 K90/103T of 55 ± 24 µM. At Survivin120 K90/103T (ITC, Survivin120 K90/103T), this molecule returned a ΔH of -1.4 kcal. For the same molecule, the “effectiveness compared with TW-ELTLGEFL” value at Survivin–CRM1 complex (pull-down analyses) was “about one order of magnitude less effective”. For the same molecule, the “concentration inhibiting the Survivin/CRM1 interaction efficiently” value on Survivin–CRM1 complex (pull-down, concentrations between 1 and 50 µM (SI18)) is greater than 50 µM.
